Experimental data from patent US10375956B2, “Herbicidally active 2-(substituted-phenyl)-cyclopentane-1,3-dione compounds and derivatives thereof” (Syngenta Limited, priority 2013, dated 2019).
Read-outs that look alike come from different tables or passages of the source.

Assays:
Type in all cases: in vivo
[1] = tested on: Brassica napus (BRSNN, rape); experiment: Test 2 glasshouse assay (IF50 formulation, X-77), post-emergence herbicidal activity; conditions: 360 h, 15 DAA, visual score, read-out: Post-emergence herbicidal activity (percentage phytotoxicity) BRSNN; for plant injury at 250 g/ha: application rate 250 g/ha; for plant injury at 125 g/ha: application rate 125 g/ha
Description: (§1) Seeds of a variety of monocotyledonous and dicotyledonous test plants are sown in standard soil in pots. The plants are cultivated for one day (for pre-emergence) or for about 12 days (for post-emergence) under controlled conditions in a glasshouse (warm climate species at 24/18° C., cool climate species at 20/16° C., both at day/night; 16 hours light; 65% humidity).
(§2) An “instant formulation”, known as the “IF50”, containing 50 g/liter (i.e. 5% w/v) of the “technical” (i.e. unformulated) active ingredient is prepared by dissolving the active ingredient in a mixture of organic solvents and emulsifier, details of which are provided in the Table below. This IF50 is then mixed with a small, variable amount of acetone to aid dissolution, before addition of a 0.2% v/v aqueous solution of the adjuvant X-77 (which is a mixture of alkyl aryl polyoxyethylene glycols and free fatty acids in isopropanol, CAS Registry number 11097-66-8), as the aqueous diluent, to form an aqueous spray solution which contains a predetermined concentration of the active ingredient (which varies depending on the application rate of the active ingredient to the plants) and 0.2% v/v of the adjuvant X-77. This aqueous spray solution is then sprayed onto the plants, after one day's cultivation (for pre-emergence), or after about 12 days' cultivation (range=10-13 days) (for post-emergence).
(§3) The test plants are then grown on, in a glasshouse (greenhouse) under controlled conditions (warm climate species at 24/18° C., cool climate species at 20/16° C., both at day/night; 16 hours light; 65% humidity) and are watered twice daily. 15 days after application of the test herbicide (15DAA) (for post-emergence), and 20 days after application of the test herbicide (20DAA) (for pre-emergence), the test plants are evaluated visually, and an assessed percentage phytotoxicity score is given for each herbicidal application on each plant species (with 100%=total damage to plant; 0%=no damage to plant).
(§4) Cool climate crop plants: Triticum aestivum (TRZAW, winter wheat), Brassica napus (BRSNN, rape, also called oilseed rape or rapeseed), Beta vulgaris (BEAVA, sugarbeet). Warm climate crop plants: Glycine max (GLXMA, soybean).

[2] = tested on: Beta vulgaris (BEAVA, sugarbeet); experiment: as above; conditions: 360 h, 15 DAA, visual score, read-out: Post-emergence herbicidal activity (percentage phytotoxicity) BEAVA; for plant injury at 250 g/ha: application rate 250 g/ha; for plant injury at 125 g/ha: application rate 125 g/ha
Description: as §1, §2, §3, §4

[3] = tested on: Triticum aestivum (TRZAW, winter wheat); experiment: as above; conditions: 360 h, 15 DAA, read-out: Post-emergence herbicidal activity (percentage phytotoxicity) TRZAW; for plant injury at 250 g/ha: application rate 250 g/ha; for plant injury at 125 g/ha: application rate 125 g/ha
Description: as §1, §2, §3, §4

[4] = tested on: Glycine max (GLXMA, soybean); experiment: as above; conditions: 360 h, 15 DAA, visual score, read-out: Post-emergence herbicidal activity (percentage phytotoxicity) GLXMA; for plant injury at 250 g/ha: application rate 250 g/ha; for plant injury at 125 g/ha: application rate 125 g/ha
Description: as §1, §2, §3, §4

[5] = tested on: Echinochloa crus-galli (ECHCG); experiment: Test 1 glasshouse assay, post-emergence herbicidal activity; conditions: 312 h, after 13 days, read-out: Percentage phytotoxicity ECHCG
Description: (§5) Seeds of a variety of test species are sown in standard soil in pots. After cultivation for one day (pre-emergence) or after 8 days cultivation (post-emergence) under controlled conditions in a glasshouse (at 24/16° C., day/night; 14 hours light; 65% humidity), the plants are sprayed with an aqueous spray solution derived from the formulation of the “technical” (i.e. unformulated) active ingredient in acetone/water (50:50) solution containing 0.5% Tween 20 (polyoxyethylene sorbitan monolaurate, CAS Registry Number 9005-64-5). The test plants are then grown on under controlled conditions in a glasshouse (at 24/16° C., day/night; 14 hours light; 65% humidity) and watered twice daily. After 13 days for pre- or post-emergence, the test is evaluated visually, and an assessed percentage phytotoxicity score is given for each herbicidal application on each plant species (where 100%=total damage to plant; 0%=no damage to plant).
(§6) Test plants include the following: Abutilon theophrasti (ABUTH) and Amaranthus retroflexus (AMARE); these are all dicotyledonous (broadleaved) weeds. Setaria faberi (SETFA), Alopecurus myosuroides (ALOMY), and Echinochloa crus-galli (ECHCG); these are all grassy monocotyledonous weeds. Also: Zea mays (ZEAMX, corn/maize), which can be a grassy weed (“volunteer” corn) in some circumstances.
(§7) Lolium perenne (LOLPE), Alopecurus myosuroides (ALOMY), Echinochloa crus-galli (ECHCG), and Avena fatua (AVEFA); these are all grassy monocotyledonous weeds. Cool climate crop plant: Triticum aestivum (TRZAW, winter wheat).

[6] = tested on: Alopecurus myosuroides (ALOMY); experiment: as above; conditions: 312 h, after 13 days, read-out: Percentage phytotoxicity ALOMY
Description: as §5, §6, §7

Lolium perenne (LOLPE) = experiment: Test 2 glasshouse assay (IF50 formulation, X-77), pre-emergence herbicidal activity; conditions: 480 h, 20DAA, read-out: Percentage phytotoxicity LOLPE
Description: as §1, §2, §3
Cool climate (“cool season”) grassy monocotyledonous weeds: Alopecurus myosuroides (ALOMY), Avena fatua (AVEFA), Lolium perenne (LOLPE).

Setaria faberi (SETFA) = experiment: Test 1 glasshouse assay, pre-emergence herbicidal activity; conditions: 312 h, visual evaluation after 13 days, read-out: Percentage phytotoxicity SETFA
Description: as §5
(§8) Test plants include the following: Abutilon theophrasti (ABUTH), Amaranthus retroflexus (AMARE): these are dicotyledonous (broadleaved) weeds. Setaria faberi (SETFA), Alopecurus myosuroides (ALOMY), Echinochloa crus-galli (ECHCG): these are grassy monocotyledonous weeds. Also: Zea mays (ZEAMX, corn/maize), which can be a grassy weed (“volunteer” corn) in some circumstances.

[7] = tested on: Alopecurus myosuroides (ALOMY); experiment: as above; conditions: 312 h, visual evaluation after 13 days, read-out: Percentage phytotoxicity ALOMY
Description: as §5, §8

[8] = tested on: Amaranthus retroflexus (AMARE); experiment: as above; conditions: 312 h, visual evaluation after 13 days, read-out: Percentage phytotoxicity AMARE
Description: as §5, §8

[9] = tested on: Abutilon theophrasti (ABUTH); experiment: as above; conditions: 312 h, visual evaluation after 13 days, read-out: Percentage phytotoxicity ABUTH
Description: as §5, §8

[10] = tested on: Zea mays (ZEAMX, corn/maize); experiment: as above; conditions: 312 h, visual evaluation after 13 days, read-out: Percentage phytotoxicity ZEAMX
Description: as §5, §8

[11] = post-emergence (Example 1B Table 1)
[12] = post-emergence (Example 1B Table 2)

C#CCC1CC(=O)C(c2cc(-c3ccc(Cl)cc3Cl)ccc2C)C1=O (stereo not drawn) [Compound A15]
plant injury at 250 g/ha [1]: 60% | plant injury at 250 g/ha [2]: 40% | plant injury at 250 g/ha ([3]; visual score): 10% | plant injury at 250 g/ha [4]: 10% | pest or weed control at 250 g/ha [5, 11]: 70% | pest or weed control at 250 g/ha [6, 11]: 10% | pest or weed control at 250 g/ha (Lolium perenne (LOLPE)): 0%

C#CCC1CC(=O)C(c2cc(-c3ncc(Cl)cc3F)ccc2C)C1=O (stereo not drawn) [Compound A18]
plant injury at 250 g/ha [1]: 20% | plant injury at 250 g/ha [2]: 50% | plant injury at 250 g/ha ([3]; visual score): 30% | plant injury at 250 g/ha [4]: 40% | pest or weed control at 250 g/ha (Setaria faberi (SETFA)): 70% | pest or weed control at 250 g/ha [7]: 60% | pest or weed control at 250 g/ha [8]: 40% | pest or weed control at 250 g/ha [9]: 20% | pest or weed control at 250 g/ha [10]: 30% | pest or weed control at 30 g/ha [5, 11]: 60% | pest or weed control at 250 g/ha [5, 11]: 80% | pest or weed control at 30 g/ha [6, 11]: 10% | pest or weed control at 250 g/ha [6, 11]: 70%

C#CCC1CC(=O)C(c2cc(-c3ncc(Cl)cn3)ccc2C)C1=O (stereo not drawn) [Compound A19]
plant injury at 250 g/ha [1]: 10% | plant injury at 250 g/ha [2]: 0% | plant injury at 250 g/ha ([3]; visual score): 30% | plant injury at 250 g/ha [4]: 20% | pest or weed control at 250 g/ha (Setaria faberi (SETFA)): 60% | pest or weed control at 250 g/ha [7]: 60% | pest or weed control at 250 g/ha [8]: 40% | pest or weed control at 250 g/ha [9]: 40% | pest or weed control at 250 g/ha [10]: 0% | pest or weed control at 30 g/ha [5, 11]: 70% | pest or weed control at 250 g/ha [5, 11]: 90% | pest or weed control at 30 g/ha [6, 11]: 10% | pest or weed control at 250 g/ha [6, 11]: 60%

C#CCC1CC(=O)C(c2c(F)cc(-c3ccc(F)cc3)cc2OC)C1=O (stereo not drawn) [Compound A20, 2-[2-fluoro-4-(4-fluorophenyl)-6-methoxyphenyl]-4-prop-2-ynylcyclopentane-1,3-dione]
pest or weed control at 250 g/ha (Setaria faberi (SETFA)): 100% | pest or weed control at 250 g/ha [7]: 90% | pest or weed control at 250 g/ha [8]: 70% | pest or weed control at 250 g/ha [9]: 70% | pest or weed control at 250 g/ha [10]: 100% | pest or weed control at 30 g/ha [5, 11]: 80% | pest or weed control at 250 g/ha [5, 11]: 100% | pest or weed control at 30 g/ha [6, 11]: 50% | pest or weed control at 250 g/ha [6, 11]: 100%

C#CCC1CC(=O)C(c2c(F)cc(-c3ccc(F)cc3F)cc2OC)C1=O (stereo not drawn) [Compound A21]
pest or weed control at 250 g/ha (Setaria faberi (SETFA)): 90% | pest or weed control at 250 g/ha [7]: 80% | pest or weed control at 250 g/ha [8]: 0% | pest or weed control at 250 g/ha [9]: 10% | pest or weed control at 250 g/ha [10]: 100% | pest or weed control at 30 g/ha [5, 11]: 90% | pest or weed control at 250 g/ha [5, 11]: 100% | pest or weed control at 30 g/ha [6, 11]: 40% | pest or weed control at 250 g/ha [6, 11]: 70%

C#CCC1CC(=O)C(c2c(C)cc(C)cc2C)C1=O (stereo not drawn) [Compound A23]
plant injury at 125 g/ha [1]: 70% | plant injury at 125 g/ha [2]: 30% | plant injury at 125 g/ha ([3]; visual score): 20% | plant injury at 125 g/ha [4]: 0% | pest or weed control at 250 g/ha [7]: 100% | pest or weed control at 62.5 g/ha [5, 12]: 100% | pest or weed control at 250 g/ha [5, 12]: 100% | pest or weed control at 62.5 g/ha [6, 12]: 90% | pest or weed control at 250 g/ha [6, 12]: 100% | pest or weed control at 250 g/ha (Lolium perenne (LOLPE)): 100%

C#CCC1CC(=O)C(c2c(CC)cc(C)cc2CC)C1=O (stereo not drawn) [Compound A25, 2-(2,6-diethyl-4-methyl-phenyl)-4-(prop-2-ynyl)-cyclopentane-1,3-dione]
plant injury at 30 g/ha ([1]; application rate 30 g/ha): 0% | plant injury at 125 g/ha [1]: 20% | plant injury at 30 g/ha ([2]; application rate 30 g/ha): 0% | plant injury at 125 g/ha [2]: 0% | plant injury at 30 g/ha ([3]; application rate 30 g/ha, visual score): 10% | plant injury at 125 g/ha ([3]; visual score): 60% | plant injury at 30 g/ha ([4]; application rate 30 g/ha): 0% | plant injury at 125 g/ha [4]: 0% | pest or weed control at 250 g/ha [7]: 100% | pest or weed control at 62.5 g/ha [5, 12]: 100% | pest or weed control at 250 g/ha [5, 12]: 100% | pest or weed control at 62.5 g/ha [6, 12]: 90% | pest or weed control at 250 g/ha [6, 12]: 100% | pest or weed control at 250 g/ha (Lolium perenne (LOLPE)): 90%

C#CCC1C(=O)C(c2c(C)cc(C)cc2C)C(=O)C1CC#C (stereo not drawn) [Compound A42]
plant injury at 125 g/ha [1]: 20% | plant injury at 500 g/ha ([1]; application rate 500 g/ha): 80% | plant injury at 125 g/ha [2]: 0% | plant injury at 500 g/ha ([2]; application rate 500 g/ha): 30% | plant injury at 125 g/ha ([3]; visual score): 0% | plant injury at 500 g/ha ([3]; application rate 500 g/ha, visual score 100%=total damage, 0%=no damage): 10% | plant injury at 125 g/ha [4]: 10% | plant injury at 500 g/ha ([4]; application rate 500 g/ha): 10% | pest or weed control at 250 g/ha [7]: 100% | pest or weed control at 250 g/ha [5, 12]: 100% | pest or weed control at 250 g/ha [6, 12]: 90% | pest or weed control at 500 g/ha (Lolium perenne (LOLPE); 500 g/ha): 100%
